Read-outs that look alike come from different tables or passages of the source.
Tests used:
[1] = tested on: portal vein; experiment: relaxing activity against contraction by KCl, extracted rabbit blood vessels (portal vein); details: Oryctolagus cuniculus, helical stripe specimens, read-out: ED50 (relaxing activity against KCl contraction)
Procedure: (§1) (1) Activity on the extracted blood vessels of a rabbit
(§2) A rabbit with a body weight of 2 to 3 kg was bled to death, and the thoracic aorta, mesenteric artery, renal artery, basilar artery and portal vein were extracted. Helical stripe specimens of these blood vessels were prepared. The specimens were suspended in a Magnus vessel, and the relaxing activity of the compound A against contraction of the specimens by KCl was examined. […] It is seen therefore that the compound A differs in activity from nitroglycerin having a strong relaxing activity on the veins, and has a strong relaxing activity on arteries, for example the coronary artery, the renal artery, etc.

[2] = tested on: basilar artery; experiment: relaxing activity against contraction by KCl, extracted rabbit blood vessels (basilar artery); details: Oryctolagus cuniculus, helical stripe specimens, read-out: ED50 (relaxing activity against KCl contraction)
Procedure: as §1, §2

[3] = tested on: coronary artery; experiment: relaxing activity against contraction by KCl, extracted rabbit blood vessels (coronary artery); details: Oryctolagus cuniculus, helical stripe specimens, read-out: ED50 (relaxing activity against KCl contraction)
Procedure: as §1, §2

[4] = tested on: mesenteric artery; experiment: relaxing activity against contraction by KCl, extracted rabbit blood vessels (mesenteric artery); details: Oryctolagus cuniculus
Procedure: as §1, §2
(§3) The inhibiting activity on human platelet aggregation and the relaxing activity on mesenteric artery (the artery being extracted from rabbits) of compounds B to G of the invention were also examined in the same way as in I, (1) and (2). The mesenteric artery relaxing activity was shown in terms of the concentration (μM) of each compound which was required to cause 50% of the maximum relaxation, and the platelet aggregation inhibiting activity, in terms of the concentration (μM) of each compound which was required to inhibit aggregation to an extent of 50%. The platelet aggregation inhibiting activities of these compounds agreed relatively well with their artery relaxing activities

[5] = tested on: thoracic aorta; experiment: relaxing activity against contraction by KCl, extracted rabbit blood vessels (thoracic aorta); details: Oryctolagus cuniculus, helical stripe specimens, read-out: ED50 (relaxing activity against KCl contraction)
Procedure: as §1, §2

[6] = tested on: renal artery; experiment: relaxing activity against contraction by KCl, extracted rabbit blood vessels (renal artery); details: Oryctolagus cuniculus, helical stripe specimens, read-out: ED50 (relaxing activity against KCl contraction)
Procedure: as §1, §2

[7] = tested on: human platelet; experiment: inhibition of human platelet aggregation in PRP; format: cell-based
From the text: (2) Activity on human platelet
PRP (platelet-rich plasma) was centrifugally separated from human blood to which sodium citrate had been added, and used as a sample. Collagen, adrenaline and adenosine diphosphate were used as substances causing platelet aggregation. The inhibitory effect of the compound A against platelet aggregation included by these substances was examined.
as §3

[8] = activity on the respiration, blood pressure, heart rate and blood flow rate of a dog; format: in vivo, dog (male Beagle); details: intravenous, pentobarbital anesthesia
Procedure: (3) Activity on the respiration, blood pressure, heart rate and blood flow rate of a dog.
The test was carried out under pentobarbital anesthesia using a male Beagle dog having a body weight of about 10 kg. The respiration was measured by means of a pneumotachograph; the blood pressure, by inserting a cannula into the femoral artery; the heart rate, by a cardiotachometer; and the rate of blood flow, by means of an electromagnetic blood flow meter by mounting a measuring probe on the vertebral artery and the femoral artery.
The present compound A was intraveneously administered as a solution in physiological saline.

[9] = acute toxicity test; details: mouse, in vivo
Procedure: An acute toxicity test was carried out by using male dd-strain mice (body weight 16 to 20 g).

[10] = Table 1, artery extracted from rabbits, same way as in I (1), read-out: Mesenteric artery relaxing activity (concentration required to cause 50% of the maximum relaxation)
[11] = Table 1, human platelets, inducing substance not stated, read-out: Platelet aggregation inhibiting activity (concentration required to inhibit aggregation to an extent of 50%)

SMILES: N=c1c[n+](N2CCN(CCCCC(=O)c3ccccc3)CC2)[n-]o1 [compound A, 3-[4-(4-Benzoylbutyl)piperazin-1-yl]sydnonimine]
- EC50 [1]: 4000 nM
- EC50 [2]: 1300 nM
- EC50 [3]: 200 nM
- EC50 ([4]; mesenteric artery, KCl contraction, helical stripe specimens, read-out: ED50 (relaxing activity against KCl contraction)): 200 nM
- EC50 [5]: 200 nM
- EC50 [6]: 100 nM
- IC50 ([7]; induced by adenosine diphosphate, human PRP, read-out: concentration which achieved a 50% inhibition of the platelet aggregation): 1500 nM
- IC50 ([7]; induced by adrenaline, human PRP, read-out: concentration which achieved a 50% inhibition of the platelet aggregation): 800 nM
- IC50 ([7]; induced by collagen, human PRP, read-out: concentration which achieved a 50% inhibition of the platelet aggregation): 3400 nM
- effect on respiration, blood pressure, heart rate and blood flow ([8]; 10 μg/kg): No appreciable effect was seen
- blood pressure ([8]; 100 μg/kg): slight degrees of a fall in blood pressure
- force of the pulse ([8]; 100 μg/kg): a decrease in the force of the pulse
- blood pressure ([8]; 500 μg/kg): a transient fall in blood pressure and a subsequent lasting fall in blood pressure
- rate of blood flow ([8]; vertebral artery and femoral artery): tended to increase at the central part as compared with the peripheral part
- LD50 ([9]; sc, subcutaneous administration): 350 mg/kg
- LD50 ([9]; intravenous administration): 91 mg/kg
- LD50 ([9]; oral administration): 750 mg/kg

SMILES: N=c1c[n+](N2CCN(CC(=O)c3ccccc3)CC2)[n-]o1 [compound B, 3-[4-(benzoylmethyl)piperazin-1-yl]sydnonimine]
- EC50 [4, 10]: 160 nM
- IC50 [7, 11]: 140 nM

SMILES: N=c1c[n+](N2CCN(CCCC(=O)c3ccccc3)CC2)[n-]o1 [compound C, 3-[4-(3-benzoylpropyl)piperazin-1-yl]sydnonimine]
- EC50 [4, 10]: 2300 nM
- IC50 [7, 11]: 5400 nM

SMILES: N=c1c[n+](N2CCN(CCCCCC(=O)c3ccccc3)CC2)[n-]o1 [compound D, 3-[4-(5-benzoylpentyl)piperazin-1-yl]sydnonimine]
- EC50 [4, 10]: 3000 nM
- IC50 [7, 11]: 6300 nM

SMILES: N=c1c[n+](N2CCN(CCCCCCC(=O)c3ccccc3)CC2)[n-]o1 [compound E, 3-[4-(6-benzoylhexyl)piperazin-1-yl]sydnonimine]
- EC50 [4, 10]: 120 nM
- IC50 [7, 11]: 940 nM

SMILES: N=c1c[n+](N2CCN(CCCCCCCCC(=O)c3ccccc3)CC2)[n-]o1 [compound F, 3-[4-(8-benzoyloctyl)piperazin-1-yl]sydnonimine]
- EC50 [4, 10]: 58 nM
- IC50 [7, 11]: 28 nM

SMILES: CC(C)CC(CCCN1CCN([n+]2cc(=N)o[n-]2)CC1)C(=O)c1ccccc1 (centres unmarked) [compound G, 3-[4-(4-benzoyl-6-methylheptyl)piperazin-1-yl]-sydnonimine]
- EC50 [4, 10]: 1300 nM
- IC50 [7, 11]: 11000 nM

Reference: patent publication US4421754A, “Syndonimine derivatives, process for production thereof, and use thereof” (Hidaka; Hiroyoshi, priority 1981, dated 1983)
